Values quoted from earlier work in PubChem BioAssay AID1259409 (Chemical Carcinogenesis Research Information System (CCRIS), 2018).

Tested on: rodent chemically induced tumor inhibition, incidence and multiplicity
Test: CCRIS tumor inhibitor studies
Settings: Route [Inhibitor]: ORAL

## Cn1c(=O)c2c(ncn2C)n(C)c1=O
Carcinogen: 2-AMINO-1-METHYL-6-PHENYLIMIDAZO[4,5-B]PYRIDINE [105650-23-5], Dose [Inhibitor]: 0.1% IN DRINKING WATER FOR 54 WK (STUDY DURATION: 54 WK), Species: RAT, Strain/Sex: F344/DUCRJ/FEMALE, Target Tissue: Type of Lesion: MAMMARY GLAND: ADENOMA OR ADENOCARCINOMA, Dose [Carcinogen]: 0.02% IN DIET FOR 54 WK (STUDY DURATION: 54 WK), Promoter: NONE
  tumour outcome (control, treated, inhibition, significance): 8/20 (40%), 2/20 (10%), 75%, p<0.05
Carcinogen: 4-(METHYLNITROSAMINO)-1-(3-PYRIDYL)-1-BUTANONE, 64091-91-4, Dose [Inhibitor]: 0, 1120 MG IN DRINKING WATER FOR 13 WK BEGINNING 2 WK PRIOR TO CARCINOGEN TREATMENT (STUDY DURATION: 18 WK), Species: MOUSE, Strain/Sex: STRAIN-A/FEMALE, Target Tissue: Type of Lesion: LUNG: ADENOMA, Dose [Carcinogen]: 11.65 MG/KG 3/WK FOR 10 WK, Promoter: NONE USED
  tumour outcome (control, treated, inhibition, significance): 100%, 100%, 0%, not significant
Carcinogen: 4-(METHYLNITROSAMINO)-1-(3-PYRIDYL-1-BUTANONE), 64091-91-4, Dose [Inhibitor]: 0, 170 PPM IN DRINKING WATER FOR 22WK BEGINNING 1 WK PRIOR TO CARCINOGEN TREATMENT (STUDY DURATION:101 WK), Species: RAT, Strain/Sex: F344/MALE, Target Tissue: Type of Lesion: LIVER: TUMOR, Dose [Carcinogen]: 1.5 MG/KG 3/WK FOR 20 WK, Promoter: NONE USED
  tumour outcome (control, treated, inhibition, significance): 11/32 (34%), 5/20 (25%), 26%, not significant
Carcinogen: 4-(METHYLNITROSAMINO)-1-(3-PYRIDYL-1-BUTANONE), 64091-91-4, Dose [Inhibitor]: 0, 170 PPM IN DRINKING WATER FOR 22 WK BEGINNING 1 WK PRIOR TO CARCINOGEN TREATMENT (STUDY DURATION:101 WK), Species: RAT, Strain/Sex: F344/MALE, Target Tissue: Type of Lesion: LUNG:TUMOR, Dose [Carcinogen]: 1.5 MG/KG 3/WK FOR 20 WK, Promoter: NONE USED
  tumour outcome (control, treated, inhibition, significance): 15/32 (47%), 4/20 (20%), 57%, not significant
Carcinogen: 4-(METHYLNITROSAMINO)-1-(3-PYRIDYL-1-BUTANONE), 64091-91-4, Dose [Inhibitor]: 0, 170 PPM IN DRINKING WATER FOR 22 WK BEGINNING 1 WK PRIOR TO CARCINOGEN TREATMENT (STUDY DURATION:101 WK), Species: RAT, Strain/Sex: F344/MALE, Target Tissue: Type of Lesion: NASAL CAVITY: TUMOR, Dose [Carcinogen]: 1.5 MG/KG 3/WK FOR 20 WK, Promoter: NONE USED
  tumour outcome (control, treated, inhibition, significance): 6/32 (19%), 3/20 (15%), 21%, not significant
Carcinogen: 4-(METHYLNITROSAMINO)-1-(3-PYRIDYL-1-BUTANONE), 64091-91-4, Dose [Inhibitor]: 0, 680 PPM IN DRINKING WATER FOR 22 WK BEGINNING 1 WK PRIOR TO CARCINOGEN TREATMENT (STUDY DURATION:101 WK), Species: RAT, Strain/Sex: F344/MALE, Target Tissue: Type of Lesion: LUNG:TUMOR, Dose [Carcinogen]: 1.5 MG/KG 3/WK FOR 20 WK, Promoter: NONE USED
  tumour outcome (control, treated, inhibition, significance): 15/32 (47%), 2/20 (10%), 79%, p<0.01
Carcinogen: 4-(METHYLNITROSAMINO)-1-(3-PYRIDYL-1-BUTANONE), 64091-91-4, Dose [Inhibitor]: 0, 680 PPM IN DRINKING WATER FOR 22 WK BEGINNING 1 WK PRIOR TO CARCINOGEN TREATMENT (STUDY DURATION: 101 WK), Species: RAT, Strain/Sex: F344/MALE, Target Tissue: Type of Lesion: NASAL CAVITY: TUMOR, Dose [Carcinogen]: 1.5 MG/KG 3/WK FOR 20 WK, Promoter: NONE USED
  tumour outcome (control, treated, inhibition, significance): 6/32 (19%), 5/20 (25%), -32%, not significant
Carcinogen: 4-METHYLNITROSAMINO-1-(3-PYRIDYL)-1-BUTANONE, 64091-91-4, Dose [Inhibitor]: 0, 1120 PPM IN DRINKING WATER 2 WK PRIOR TO CARCINOGEN AND CONTINUING FOR 13 WK (STUDY DURATION: 29 WK), Species: MOUSE, Strain/Sex: A/J/FEMALE, Target Tissue: Type of Lesion: LUNG: ADENOMA, Dose [Carcinogen]: 11.65 MG/KG IN CORN OIL 3/WK FOR 10 WK, Promoter: NONE USED
  tumour outcome (control, treated, inhibition, significance): 100%, 100%, 0%, not significant
Carcinogen: 7,12-DIMETHYLBENZ[A]ANTHRACENE, 57-97-6, Dose [Inhibitor]: 0, 500 MG/L IN DRINKING WATER BEGINNING AT 27 D OF AGE AND CONTINUING TO 59 D OF AGE (STUDY DURATION: 52 WK), Species: RAT, Strain/Sex: SPRAGUE-DAWLEY/FEMALE, Target Tissue: Type of Lesion: MAMMARY GLAND: BENIGN TUMOR, Dose [Carcinogen]: 0.5 MG/100 G BW ONCE AT 55 D OF AGE, Promoter: NONE USED
  tumour outcome (control, treated, inhibition, significance): 71/73 (97%), 65/70 (93%), 4%, not significant
Carcinogen: 7,12-DIMETHYLBENZ[A]ANTHRACENE, 57-97-6, Dose [Inhibitor]: 0, 500 MG/L IN DRINKING WATER BEGINNING AT 27 D OF AGE AND CONTINUING TO 59 D OF AGE (STUDY DURATION: 52 WK), Species: RAT, Strain/Sex: SPRAGUE-DAWLEY/FEMALE, Target Tissue: Type of Lesion: MAMMARY GLAND: CARCINOMA, Dose [Carcinogen]: 0.5 MG/100 G BW ONCE AT 55 D OF AGE, Promoter: NONE USED
  tumour outcome (control, treated, inhibition, significance): 42/73 (58%), 20/70 (29%), 50%, p<0.001
Carcinogen: 7,12-DIMETHYLBENZ[A]ANTHRACENE, 57-97-6, Dose [Inhibitor]: 0, 500 MG/L IN DRINKING WATER BEGINNING AT 59 D OF AGE AND CONTINUING FOR DURATION OF STUDY (STUDY DURATION: 48 WK), Species: RAT, Strain/Sex: SPRAGUE-DAWLEY/FEMALE, Target Tissue: Type of Lesion: MAMMARY GLAND: BENIGN TUMOR, Dose [Carcinogen]: 0.5 MG/100 G BW ONCE AT 55 D OF AGE, Promoter: NONE USED
  tumour outcome (control, treated, inhibition, significance): 70/72 (97%), 55/62 (89%), 8%, p,0.05
Carcinogen: 7,12-DIMETHYLBENZ[A]ANTHRACENE, 57-97-6, Dose [Inhibitor]: 0, 500 MG/L IN DRINKING WATER BEGINNING AT 59 D OF AGE AND CONTINUING FOR DURATION OF STUDY (STUDY DURATION: 48 WK), Species: RAT, Strain/Sex: SPRAGUE-DAWLEY/FEMALE, Target Tissue: Type of Lesion: MAMMARY GLAND: CARCINOMA, Dose [Carcinogen]: 0.5 MG/100 G BW ONCE AT 55 D OF AGE, Promoter: NONE USED
  tumour outcome (control, treated, inhibition, significance): 39/72 (54%), 31/62 (50%), 7%, not significant
Carcinogen: 7,12-DIMETHYLBENZ[A]ANTHRACENE, 57-97-6, Dose [Inhibitor]: 0, 500 MG/L IN DRINKING WATER OF 58 DAY OLD VIRGIN RATS (STUDY DURATION: 56 WK), Species: RAT, Strain/Sex: SPRAGUE-DAWLEY/FEMALE, Target Tissue: Type of Lesion: MAMMARY GLAND: CARCINOMA, Dose [Carcinogen]: 2 MG/100 G BW ONCE AT 55 D OF AGE, Promoter: NONE USED
  tumour outcome (control, treated, inhibition, significance): 95%, 100%, -5%, not significant
